# In PubChem BioAssay AID467 (The Scripps Research Institute Molecular Screening Center, 2006):
# Calls of active or inactive are those of the source. The rule behind the calls is not given here.
# Test system: parental cell line counter screen, S1P1 agonist assay readout
# Assay: signal in parental cells, counter-screen for S1P1 agonist project (AID 467);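 note: agonist potency measured against forskolin stimulation plus an EC20 level of SEW2871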
row,Structure (SMILES),EC50
1,Cc1ccc(C(C)C)c(OCc2nc(-c3nonc3N)no2)c1,> 30 µM (inactive)
2,Cc1ccc(C(C)C)c(OCc2ccc(-c3nnco3)cc2)c1,> 95.1 µM (inactive)
3,Cc1cc(C)cc(-c2nc(-c3ccncc3)no2)c1,> 95.1 µM (inactive)
4,CCc1ccc2c(COC(=O)c3n[nH]c4ccccc34)cc(=O)oc2c1,> 95.1 µM (inactive)
5,C=CCOC(=O)c1[nH]c2c(c1C)C(=O)CC(c1cc(OC)c(OC)c(OC)c1)C2 (configuration not stated),> 95.1 µM (inactive)
6,COc1cc(-c2noc(C3CCCN(S(=O)(=O)c4cccc(Cl)c4)C3)n2)cc(OC)c1OC (configuration not stated),> 95.1 µM (inactive)
7,Cc1cc(C)n2nc(SCC(=O)c3cc(C)n(-c4cc(C)on4)c3C)nc2n1,63.5 µM (inactive)
8,O=C(NCc1ccco1)C1CCN(C(=O)c2cc3sccc3n2Cc2ccc(Cl)cc2)CC1,22.4 µM (inactive)
9,C=CCn1c(SCC(=O)c2cccs2)nc2sc(CC)cc2c1=O,58.6 µM (inactive)
10,COc1ccccc1-c1nc(-c2ccc(Br)cc2)no1,> 95.1 µM (inactive)
11,CN(C)c1ccnc2sc3c(=O)n(Cc4ccccc4)cnc3c12,> 95.1 µM (inactive)
12,CN(C)c1oc(-c2ccc(OCc3ccccc3)cc2)nc1C#N,> 95.1 µM (inactive)
